3 compounds from ChEMBL document CHEMBL6114969, “Ultra-short lipopeptides containing d-amino acid exhibiting excellent stability and antibacterial activity against gram-positive bacteria” (Eur J Med Chem, 2025) can be followed below.

For orientation: MIC means the lowest concentration that inhibits growth of the organism. What is called half-life is how long it takes for the measured level to halve.

Structures are written as SMILES. Values after ≈ are worked out from the molar mass of the structure shown. Active and inactive are the calls of the source. No cut-off for these calls is given here.

The nature of data set [1]: Retention time of compound by RP-HPLC analysis. In kind it is physicochemical.
For data set [2], the system named is Staphylococcus aureus. In words: Antibacterial activity against Staphylococcus aureus ATCC 25923 incubated for 18 to 24 hrs by broth microdilution method. As to conditions: time 18-24 hrs. It is filed as functional. A general note: Dilution methods test growth across graded concentrations, often in twofold steps.
Data set [3] concerns Staphylococcus aureus. Kind of data set: Antibacterial activity against Staphylococcus aureus ATCC 29213 incubated for 18 to 24 hrs by broth microdilution method. It is filed as functional. Particulars: time 18-24 hrs.
The subject of data set [4] is Staphylococcus aureus. In words: Antibacterial activity against methicillin-resistant Staphylococcus aureus ATCC 33591 incubated for 18 to 24 hrs by broth microdilution method. In kind it is functional. As to conditions: time 18-24 hrs.
Data set [5] deals with Staphylococcus epidermidis. Kind of data set: Antibacterial activity against Staphylococcus epidermidis ATCC 12228 incubated for 18 to 24 hrs by broth microdilution method. In kind it is functional. Particulars: time 18-24 hrs.
The subject of the next data set is Enterococcus faecalis. Kind of data set: Antibacterial activity against Enterococcus faecalis ATCC 29212 incubated for 18 to 24 hrs by broth microdilution method. It is filed as functional. As to conditions: time 18-24 hrs.
A short description of data set [6]: Hemolytic activity in mouse Red blood cells incubated for 1 hr by absorbance based analysis. In kind it is toxicity, cell-based. As to conditions: erythrocyte.
In data set [7] the test system is Staphylococcus aureus. Kind of data set: Antibacterial activity against methicillin-resistant Staphylococcus aureus ATCC 33591 incubated for 18 to 24 hrs in presence of 0.5 mg/ml of trypsin by broth microdilution method. It is filed as functional. As to conditions: time 18-24 hrs.
Data set [8] relates to Staphylococcus aureus. In words: Antibacterial activity against methicillin-resistant Staphylococcus aureus ATCC 33591 incubated for 18 to 24 hrs in presence of 1 mg/ml of trypsin by broth microdilution method. It is filed as functional. Particulars: time 18-24 hrs.
Data set [9] concerns Staphylococcus aureus. Kind of data set: Antibacterial activity against methicillin-resistant Staphylococcus aureus ATCC 33591 incubated for 18 to 24 hrs in presence of 2 mg/ml of trypsin by broth microdilution method. In kind it is functional. Particulars: time 18-24 hrs.
Data set [10] deals with Staphylococcus aureus. Kind of data set: Antibacterial activity against methicillin-resistant Staphylococcus aureus ATCC 33591 incubated for 18 to 24 hrs in presence of 0.5 mg/ml of chymotrypsin by broth microdilution method. In kind it is functional. As to conditions: time 18-24 hrs.
The subject of data set [11] is Staphylococcus aureus. Kind of data set: Antibacterial activity against methicillin-resistant Staphylococcus aureus ATCC 33591 incubated for 18 to 24 hrs in presence of 1 mg/ml of chymotrypsin by broth microdilution method. In kind it is functional. Particulars: time 18-24 hrs.
The test system of data set [12] is Staphylococcus aureus. Kind of data set: Antibacterial activity against methicillin-resistant Staphylococcus aureus ATCC 33591 incubated for 18 to 24 hrs in presence of 2 mg/ml of chymotrypsin by broth microdilution method. In kind it is functional. Particulars: time 18-24 hrs.
Data set [13] deals with Staphylococcus aureus. In words: Antibacterial activity against methicillin-resistant Staphylococcus aureus ATCC 33591 incubated for 18 to 24 hrs in presence of 0.5 mg/ml of pepsin by broth microdilution method. In kind it is functional. Particulars: time 18-24 hrs.
Data set [14] has as its system Staphylococcus aureus. Kind of data set: Antibacterial activity against methicillin-resistant Staphylococcus aureus ATCC 33591 incubated for 18 to 24 hrs in presence of 1 mg/ml of pepsin by broth microdilution method. It is filed as functional. Particulars: time 18-24 hrs.
The test system of data set [15] is Staphylococcus aureus. In words: Antibacterial activity against methicillin-resistant Staphylococcus aureus ATCC 33591 incubated for 18 to 24 hrs in presence of 2 mg/ml of pepsin by broth microdilution method. Particulars: time 18-24 hrs. In kind it is functional.
The subject of data set [16] is Staphylococcus aureus. In words: Antibacterial activity against methicillin-resistant Staphylococcus aureus ATCC 33591 assessed as fold change in MIC incubated for 18 to 24 hrs in presence of MgCl2 by broth microdilution method. In kind it is functional. As to conditions: time 18-24 hrs.
The subject of data set [17] is Staphylococcus aureus. Kind of data set: Antibacterial activity against methicillin-resistant Staphylococcus aureus ATCC 33591 assessed as fold change in MIC incubated for 18 to 24 hrs in presence of NaCl by broth microdilution method. It is filed as functional. Particulars: time 18-24 hrs.
Data set [18] has as its system Staphylococcus aureus. Kind of data set: Antibacterial activity against methicillin-resistant Staphylococcus aureus ATCC 33591 assessed as fold change in MIC incubated for 18 to 24 hrs in presence of 10 percent FBS by broth microdilution method. In kind it is functional. Particulars: time 18-24 hrs.
For data set [19], the system named is Staphylococcus aureus. Kind of data set: Antibacterial activity against methicillin-resistant Staphylococcus aureus ATCC 33591 assessed as fold change in MIC incubated for 18 to 24 hrs in presence of 10 percent mouse serum by broth microdilution method. In kind it is functional. Particulars: time 18-24 hrs.
Data set [20] is described as follows: Stability in mouse serum assessed as half life measured upto 96 hrs by RP-HPLC analysis. It is filed as ADME, cell-free.
Data set [21] can be described thus: Stability in mouse serum assessed as compound degradation measured upto 96 hrs by RP-HPLC analysis. In kind it is ADME, cell-free. As to conditions: read-out: Drug degradation.
The test system of data set [22] is Staphylococcus aureus. Kind of data set: Induction of drug resistance in methicillin-resistant Staphylococcus aureus ATCC 33591 assessed as fold increase in MIC at sub-MIC measured after 14 passages relative to control. It is filed as functional.
Data set [23] concerns Staphylococcus aureus. Kind of data set: Induction of drug resistance in Staphylococcus aureus ATCC 25923 at sub-MIC measured after 2 passages. In kind it is functional, organism-based.
The subject of data set [24] is Staphylococcus aureus. In words: Induction of drug resistance in Staphylococcus aureus ATCC 25923 assessed as fold increase in MIC at sub-MIC measured after 10 passages relative to control. In kind it is functional.
The test system of data set [25] is Staphylococcus aureus. In words: Antibacterial activity against drug-resistant Staphylococcus aureus ATCC 25923 incubated for 18 to 24 hrs. As to conditions: time 18-24 hrs. In kind it is functional.
In data set [26] the test system is Staphylococcus aureus. Kind of data set: Antibacterial activity against ciprofloxacin-resistant Staphylococcus aureus ATCC 25923 incubated for 18 to 24 hrs. It is filed as functional. Particulars: time 18-24 hrs.
Data set [27] concerns Staphylococcus aureus. In words: Antibacterial activity against polymyxin B-resistant Staphylococcus aureus ATCC 25923 incubated for 18 to 24 hrs. In kind it is functional. Particulars: time 18-24 hrs.
In data set [28] the test system is Staphylococcus aureus. Kind of data set: Antibacterial activity against gentamicin-resistant Staphylococcus aureus ATCC 25923 incubated for 18 to 24 hrs. As to conditions: time 18-24 hrs. It is filed as functional.
Data set [29] relates to Staphylococcus aureus. In words: Antibacterial activity against drug-resistant methicillin-resistant Staphylococcus aureus ATCC 33591 incubated for 18 to 24 hrs. In kind it is functional. Particulars: time 18-24 hrs.
Data set [30] concerns Staphylococcus aureus. Kind of data set: Antibacterial activity against ciprofloxacin-resistant methicillin-resistant Staphylococcus aureus ATCC 33591 incubated for 18 to 24 hrs. In kind it is functional. As to conditions: time 18-24 hrs.
Data set [31] has as its system Staphylococcus aureus. Kind of data set: Antibacterial activity against polymyxin B-resistant methicillin-resistant Staphylococcus aureus ATCC 33591 incubated for 18 to 24 hrs. In kind it is functional. Particulars: time 18-24 hrs.
The test system of data set [32] is Staphylococcus aureus. In words: Antibacterial activity against gentamicin-resistant methicillin-resistant Staphylococcus aureus ATCC 33591 incubated for 18 to 24 hrs. It is filed as functional. Particulars: time 18-24 hrs.

`CCCCCCCCCCCC(=O)N[C@@H](CCCNC(=N)N)C(=O)N[C@@H](CCCNC(=N)N)C(=O)N[C@@H](Cc1c[nH]c2ccccc12)C(=O)O` gave a Retention_time in [1] of 18.643 min. Also, the minimal inhibitory concentration (MIC) is 4 µM (≈ 2.8 µg/mL) against Staphylococcus aureus [2]; 4 µM (≈ 2.8 µg/mL) with Staphylococcus aureus [3]; 4 µM (≈ 2.8 µg/mL) in the data set on Staphylococcus aureus [4]; 2 µM (≈ 1.4 µg/mL) in data set [5]; 8 µM (≈ 5.59 µg/mL) with Enterococcus faecalis; above 128 µM in the data set on Staphylococcus aureus [7]. Also, the MIC with Staphylococcus aureus [8] is above 128 µM; with Staphylococcus aureus [9], above 128 µM; in the data set with Staphylococcus aureus [10], above 128 µM; in the data set with Staphylococcus aureus [11], above 128 µM; with Staphylococcus aureus [12] it was above 128 µM; with Staphylococcus aureus [13], 16 µM. Further, the MIC in the data set with Staphylococcus aureus [14] amounted to 32 µM; in the data set with Staphylococcus aureus [15] it was 64 µM. In [6], this compound showed an HC10 of 128 µM. In addition, the “fold change (FC)” value with Staphylococcus aureus [16] is reported as below 3; in the data set on Staphylococcus aureus [17], below 3; in the data set on Staphylococcus aureus [18], 8; with Staphylococcus aureus [19] it was 4. For the same compound, in data set [20], the half-life was 17.4 h. Further, in data set [21], the metabolised at 96 h was around 100%.
Turning to `C[C@@H](O)[C@H]1C(=O)N2C(C(=O)O)=C(SCCNC=N)C[C@H]12` [IMIPENEM ANHYDROUS], the minimal inhibitory concentration (MIC) against Staphylococcus aureus [2] stood at 4 µM (≈ 1.2 µg/mL); in the data set with Staphylococcus aureus [3], 2 µM (≈ 0.599 µg/mL); with Staphylococcus aureus [4], 32 µM (≈ 9.58 µg/mL); in [5], 4 µM (≈ 1.2 µg/mL); against Enterococcus faecalis, 2 µM (≈ 0.599 µg/mL). The figures for the “fold change (FC)” value in the data set on Staphylococcus aureus [22] and with Staphylococcus aureus [24] were 64 and 2048, respectively. The outcome with Staphylococcus aureus [23] was Active.
As to `O=C(O)c1cn(C2CC2)c2cc(N3CCNCC3)c(F)cc2c1=O` [CIPROFLOXACIN], the minimum inhibitory concentration (MIC) with Staphylococcus aureus [2] was 1 µM (≈ 0.331 µg/mL); in the data set with Staphylococcus aureus [3], 1 µM (≈ 0.331 µg/mL); against Staphylococcus aureus [4], 256 µM (≈ 84.8 µg/mL); in data set [5], at most 0.5 µM; with Enterococcus faecalis, 2 µM (≈ 0.663 µg/mL); with Staphylococcus aureus [25], above 128 µM. For the same compound, the MIC is 8190 µM (≈ 2710 µg/mL) against Staphylococcus aureus [26]; above 128 µM against Staphylococcus aureus [27]; 128 µM (≈ 42.4 µg/mL) in the data set with Staphylococcus aureus [28]; above 128 µM in the data set with Staphylococcus aureus [29]; 8190 µM (≈ 2710 µg/mL) in the data set on Staphylococcus aureus [30]; above 128 µM against Staphylococcus aureus [31]. In the data set with Staphylococcus aureus [32], inhibition of growth (MIC) required 128 µM (≈ 42.4 µg/mL). The result in the data set on Staphylococcus aureus [23] was Active.
